Assay results from publication PMC5983277 (Marine Drugs, 2018).
Like-named read-outs stand apart in the source and are kept apart here.

Columns and labels:
[1] = test system: human epidermoid carcinoma cells (KB); experiment: cells; conditions: Homo sapiens, KB, 72 h, read-out: percentage of inhibition of cellular proliferation of KB cells
Protocol: (§1) The human cell line KB originated from the National Cancer Institute (NCI) and was grown in Dulbecco’s Modified Eagle Medium (D-MEM) medium supplemented with 10% foetal calf serum, in the presence of penicillin, streptomycin, and fungizone in a 75 mL flask under 5% CO2. A total of 600 cells were plated in 96-well tissue culture plates in 200 µL of medium and treated 24 h later with 2 μL of stock solution of compounds dissolved in DMSO using a Biomek 3000 (Beckman-Coulter, Brea, CA, USA). Controls received the same volume of DMSO (1% final volume). After 72 h exposure, cell titer 96 Aqueous One solution (Promega, Madison, WI, USA) was added and incubated for 3 h at 37 °C: the absorbance was monitored at 490 nm, and results were expressed as the inhibition of cell proliferation calculated as the ratio [(1 − (OD490 treated/OD490 control)) × 100] in triplicate experiments.

Insect recombinant AChE = molecular target: Insect recombinant AChE; design: method as in Sepcic et al. 2001 [33]; key to mode of AChE inhibition: NCI: non competitive inhibition; CI: competitive inhibition; ND: non described; conditions: ref Sepcic et al. 2001 [33], cited from earlier work
Eel AChE = molecular target: Eel AChE; design: key to mode of AChE inhibition: NCI: non competitive inhibition; CI: competitive inhibition; ND: non described; conditions: cited from earlier work; for IC50: read-out: AChE inhibition IC50
Human recombinant AchE = test system: Human recombinant AchE; design: method as in Sirimangkalakitti et al. 2015 [32]; key to mode of AChE inhibition: NCI: non competitive inhibition; CI: competitive inhibition; ND: non described; conditions: ref Sirimangkalakitti et al. 2015 [32], cited from earlier work; for IC50: read-out: AChE inhibition IC50
in vitro = conditions: human
Protocol: as §1

[2] = molecular target: T1, acetylcholinesterase (AChE) (Homo sapiens, UniProt P22303); experiment: Acetylcholinesterase inhibition assay (Ellman's colorimetric method) and kinetic study; type: biochemical
T1 construct: purchased Sigma-Aldrich
T1 sequence (P22303 32-614, species assumed): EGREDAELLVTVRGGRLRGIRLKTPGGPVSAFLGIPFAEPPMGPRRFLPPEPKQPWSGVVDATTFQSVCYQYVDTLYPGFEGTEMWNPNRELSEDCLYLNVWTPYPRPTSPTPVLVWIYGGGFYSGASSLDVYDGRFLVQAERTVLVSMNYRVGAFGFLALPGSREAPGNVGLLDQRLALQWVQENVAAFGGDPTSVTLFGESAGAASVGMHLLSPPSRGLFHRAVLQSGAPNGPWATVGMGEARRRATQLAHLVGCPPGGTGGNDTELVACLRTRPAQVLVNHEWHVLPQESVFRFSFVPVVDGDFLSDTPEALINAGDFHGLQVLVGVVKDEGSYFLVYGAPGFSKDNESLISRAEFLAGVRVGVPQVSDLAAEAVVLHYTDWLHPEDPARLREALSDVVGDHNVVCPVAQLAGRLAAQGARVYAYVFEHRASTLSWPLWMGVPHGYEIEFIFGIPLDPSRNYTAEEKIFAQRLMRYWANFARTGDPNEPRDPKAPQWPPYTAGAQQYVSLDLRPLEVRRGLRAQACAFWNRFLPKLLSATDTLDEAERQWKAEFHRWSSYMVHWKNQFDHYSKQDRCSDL
Protocol: The crude extract of the sponge and the purified psammaplysene D (1) were dissolved in DMSO at 10 mg/mL, stored at −20 °C and diluted subsequently 100 times in H2O prior testing. Determination of AChE-inhibitory activity was measured according the Ellman’s colorimetric method, in 96-well tissue culture plates. All reagents, buffers and salts were purchased from Sigma-Aldrich (Saint-Louis, MO, USA). Galantamine was used as a positive control for each analysis. Solvent controls received the same volume of water. After a 30 min incubation at 25 °C in the dark, absorbance was monitored at λ = 405 nm. Results were expressed as the percentage of enzyme inhibition calculated as the ratio: 100 × (ODcontrol − ODtreated)/(ODcontrol − ODblank), where the blanks are the wells without AChE. Serial dilutions of the compound or extract were prepared (100, 50, 25, 12.5, 6.25, 3.12, 1.56, and 0.78 μg/mL) and tested according to the same procedure using 10 μL of each solution. IC50 values were graphically determined by plotting the percentage of inhibition against the compound concentrations. Each assay was performed in triplicate and results are expressed as mean values ± S.D.
The inhibition mode of psammaplysene D on AChE was determined while measuring the enzyme activity in presence of an increasing concentration of ATCI (0.024, 0.049, 0.098, 0.19, 0.39, 0.78, 1.57, and 3.15 μM), in absence or presence of 2 μg/mL final concentration of purified psammaplysene D. The inhibition mode, Vmax, and KM values were determined by double-reciprocal Lineweaver and Burk plot analysis (1934) of the data obtained.

AChE = AChE activity in brain and gill extracts of exposed guppies; type: in vivo; conditions: guppies after 1 h exposure to 100 µg/mL, N = 5, p < 0.05
Protocol: Brains and gills of these guppies were extracted and the AChE activity measured on the extracts (Figure 7a,b) [29].
Figure 7 (a) AChE activity, U·mg^−1, after 1 h exposure to 100 µg/mL of Psammalysene D (1). […] Boxplot distribution was made with 5 fish (N = 5).
All the values of AChE activity are represented in a boxplot distribution, because of non-normality of variable distribution (N = 4 or 5). The significant differences between controls and treatments (p-value p < 0.05) were analyzed with non-parametric test of Wilcoxon Mann Whitney. […] All statistical assays were executed using R software (R-3.2.0, The R Foundation for Statistical Computing, Vienna, Austria).

[3] = test system: Poecilia reticulata (guppy); experiment: Guppy acute toxicity bioassay (bathing, 1 h); type: in vivo; conditions: guppies
Protocol: (§2) The screening of our French Polynesian sponges extract library was performed on acetylcholinesterase inhibitor (AChE) in the aim to investigate a possible chemical defense of sessile organisms on the reef against fishes, their main predators. […] In order to try to evaluate the effect of psammaplysene D in the environment, it was further tested on fresh water fish (guppy, Poecilia reticulata) and reef fish (Acanthurus triostegus) feeding experiment using bathing with or without the bioactive compound. Guppies are fed with commercial flakes, but the wild reef fish feed on natural coral heads, and their appetite evaluated by counting the bites on the corals. Two experiments were run on guppies using Suberea ianthelliformis crude extract and purified psammaplysene D (1): an acute toxicity bioassay (100 μg/mL of crude extract or purified psammaplysene D (1), 1 h) and a chronic toxicity (5 μg/mL of crude extract or 1 μg/mL of purified psammalysene D (1), 72 h).
5 to 8 cm long guppies (Poecilia reticulata) were collected at night in a private fresh water pool at Papara (Tahiti, French Polynesia) and immediately acclimated at the laboratory temperature (25 °C). After acclimatization, fishes were parted in two 2 L tanks: one for the control group treated with solvent (N = 5). Another experiment was performed using a 1 h treatment with 100 μg/mL of crude extract of the sponge or purified psammaplysene D (1) to check their acute toxicity.

[4] = test system: Poecilia reticulata (guppy); experiment: Guppy chronic (sub-lethal) exposure, feeding on flakes; type: in vivo; conditions: guppies, sub-lethal dose 1 μg/mL purified compound, 24 h exposure (72 h experiment)
Protocol: as §2
5 to 8 cm long guppies (Poecilia reticulata) were collected at night in a private fresh water pool at Papara (Tahiti, French Polynesia) and immediately acclimated at the laboratory temperature (25 °C). After acclimatization, fishes were parted in two 2 L tanks: one for the control group treated with solvent (N = 5). […]

[5] = test system: Acanthurus triostegus (reef fish); experiment: Reef fish feeding behavior experiment (bites on coral rubble); type: in vivo; conditions: for number of bites on coral pieces per recruit and per hour (in words): A. triostegus recruits (larvae undergoing metamorphosis), 1 μg/mL in tank, 72 h, p < 0.01
Protocol: Manini (Acanthurus triostegus) were caught during new moon nights on the foreshore puddles at Tema’e public beach. Recruits (fish larvae undergoing metamorphosis) and juveniles (larvae after the recruits stage) were collected and immediately used for the experiments. Natural lagoon sea-water was used and UV-sterilized prior use. Three conditions were tested on three groups: control, solvent, 1 μg/mL sponge extract treatment, with 4 or 5 fishes in each 3 L tank. The fishes were exposed under semi-static system for 72 h, the experimental solutions were renewed every 24 h to maintain clean experimental conditions. The experiments were performed with fish recruits and juveniles. Rubbles were disposed in each aquarium 1 h/day during 3 days. Feeding behavior experiment consists in counting the overall number of bites on those rubbles in each aquarium. Six videos sequences (N = 6) of 5 or 10 min per aquarium and per day were analyzed. Results are expressed in number of bites per fish and per hour.
All the values of AChE activity are represented in a boxplot distribution, because of non-normality of variable distribution (N = 4 or 5). The significant differences between controls and treatments (p-value p < 0.05) were analyzed with non-parametric test of Wilcoxon Mann Whitney. In feeding deterrent assay, pairs significant differences between different conditions (p < 0.05) were tested with non-parametric Kruskal Wallis test. All statistical assays were executed using R software (R-3.2.0, The R Foundation for Statistical Computing, Vienna, Austria).

O=C(O)c1cc(O)c2c(O)ccc(O)c2n1 [5-hydroxy xanthenuric acid (11), 4,5,8-trihydroxyquinoline-2-carboxilic acid]
inhibition at 1 µM [1]: 6 ± 0.5% | inhibition at 10 µM [1]: 25 ± 1%

CN(C)CCc1cc(Br)c(OCCCN(C)C(=O)C(Cc2cc(Br)c(O)c(Br)c2)N(C)C)c(Br)c1 (centres unmarked) [Anomoian C (6), O-demethyl anomoian B]
inhibition at 1 µM [1]: 15 ± 3% | inhibition at 10 µM [1]: 28 ± 5%

CNC(Cc1cc(Br)c(O)c(Br)c1)C(=O)N(C)CCCOc1c(Br)cc(CCN(C)C)cc1Br (centres unmarked) [Anomoian D (7), O-demethyl anomoian A]
inhibition at 1 µM [1]: 17 ± 2% | inhibition at 10 µM [1]: 29 ± 2%

CNC(Cc1cc(Br)c(OCCCN(C)C)c(Br)c1)C(=O)N(C)CCCOc1c(Br)cc(CCN(C)C)cc1Br (centres unmarked) [Anomoian E (8), anomoian E]
inhibition at 1 µM [1]: 6 ± 2% | inhibition at 10 µM [1]: 82 ± 1%

CN(C)CCCOc1c(Br)cc(CC(C(=O)N(C)CCCOc2c(Br)cc(CCN(C)C)cc2Br)N(C)C)cc1Br (centres unmarked) [Anomoian F (9), anomoian F]
inhibition at 1 µM [1]: 20 ± 0.6% | inhibition at 10 µM [1]: 100 ± 0.5%

Br.COc1c(Br)cc(C/C(=N\O)C(=O)NCCc2cc(Br)c(OCCCN)c(Br)c2)cc1Br [Aplysamine-4]
Ki (Insect recombinant AChE; read-out: AChE inhibition KI): 2 µM | mode of AChE inhibition (Insect recombinant AChE): NCI | Ki (Eel AChE; ref Sepcic et al. 2001 [33], read-out: AChE inhibition KI): 16 µM | mode of AChE inhibition (Eel AChE; ref Sepcic et al. 2001 [33]): NCI

COC1=C(Br)C(O)C2(C=C1Br)CC(C(=O)NCC(O)COc1c(Br)cc(C3CNC(=O)O3)cc1Br)=NO2 (centres unmarked) [Fistularin 1]
IC50 (Human recombinant AchE): 47.5 µM

COC1=C(Br)[C@H](O)[C@@]2(C=C1Br)CC(C(=O)NCCCCCNC(=O)C1=NO[C@]3(C=C(Br)C(OC)=C(Br)[C@@H]3O)C1)=NO2 [Homoaerothionin]
IC50 (Human recombinant AchE): 4.5 µM | mode of AChE inhibition (Human recombinant AchE): CI

CN[C@@H](Cc1cc(Br)c(OC)c(Br)c1)C(=O)NCCc1cc(Br)c(OCCCN(C)C)c(Br)c1 [Isoanomoian A]
IC50 (Eel AChE; ref Olatunji et al. 2014 [31]): 70 µM | mode of AChE inhibition (Eel AChE; ref Olatunji et al. 2014 [31]): NCI

CN(C)CCc1cc(Br)c(O)c(Br)c1 [N,N-dimethyldibromotyramine (10), N,N-dimethyldibromotyramine]
inhibition at 1 µM [1]: 89 ± 1% | inhibition at 10 µM [1]: 100 ± 1%

CN(C)CCCOc1c(Br)cc(/C=C/C(=O)N(C)CCCOc2c(Br)cc(CCN(C)C)cc2Br)cc1Br [Psammaplysene D (1), psammaplysene D]
inhibition at 1 µM [1]: 95 ± 0.5% | inhibition at 10 µM [1]: 100 ± 0.2% | IC50 at 72 h (in vitro): 0.7 µM | IC50 [2]: 1.3 µM | mode of AChE inhibition ([2]; Lineweaver-Burk plot): mixed competitive/non-competitive inhibition | Vmax ([2]; Lineweaver-Burk, with 2 μg/mL psammaplysene D, decreasing from 0.0036): 0.0007 µmol/min | AChE activity in gills (in words) (AChE): mild but significant decrease | behaviour during acute exposure ([3]; 100 μg/mL, bathing): totally confused and had uncontrolled mobility | acute toxicity outcome ([3]; 100 μg/mL, one hour bathing): death | time to onset of behavioural effects after addition to the tank ([3]; acute exposure 100 μg/mL): 20 min | feeding behaviour towards food flakes [4]: loss of appetite from the first day of experiment | feeding behaviour towards food flakes ([4]; listed as psammalysene D (1)): passivity of the fish towards the food flakes | behaviour of reef fish juveniles ([5]; A. triostegus juveniles): did not seem to be impacted | number of bites on coral pieces per recruit and per hour (in words) [5]: loss of appetite from the first day of experiment | number of bites on coral pieces per recruit and per hour (in words) ([5]; listed as psammaplysene D (1)): significantly and readily decreased the number of bites

CN(C)CCc1cc(Br)c(OCCCN(C)C(=O)/C=C/c2cc(Br)c(O)c(Br)c2)c(Br)c1 [Psammaplysene F (2), psammaplysene F]
inhibition at 1 µM [1]: 20 ± 0.2% | inhibition at 10 µM [1]: 73 ± 2%

CN(C)CCc1cc(Br)c(OCCCN(C)C(=O)/C=C\c2cc(Br)c(O)c(Br)c2)c(Br)c1 [Psammaplysene G (3), psammaplysene G]
inhibition at 1 µM [1]: 17 ± 1% | inhibition at 10 µM [1]: 75 ± 0.4%

Aplysanzine A
IC50 (Eel AChE; ref Olatunji et al. 2014 [31]): 104 µM | mode of AChE inhibition (Eel AChE; ref Olatunji et al. 2014 [31]): NCI

Purealidine Q
IC50 (Eel AChE; ref Olatunji et al. 2014 [31]): 1.2 µM | mode of AChE inhibition (Eel AChE; ref Olatunji et al. 2014 [31]): NCI
